Measured values: article PMC9736855, “Discovery of 3-Amino-1H-pyrazole-Based Kinase Inhibitors to Illuminate the Understudied PCTAIRE Family” (International Journal of Molecular Sciences, 2022)

How the values were obtained:
Assay in all cases: NanoBRET
Assay type in all cases: cell-based
CDK6/Cyclin D3 = target: T1, CDK6/Cyclin D3 (Homo sapiens, UniProt Q00534); details: read-out: NanoBRET EC50 ± SEM CDK6/Cyclin D3
T1 construct: Full-length kinases were obtained as plasmids cloned in frame with a terminal NanoLuc-fusion; CS1810C87 (CCND3); host or cells: HEK293T
Experimental: (§1) The assay was performed as described previously. In brief: Full-length kinases were obtained as plasmids cloned in frame with a terminal NanoLuc-fusion (Promega, Madison, WI, USA), as specified in table (Table S6). Plasmids were transfected into HEK293T cells using FuGENE HD (Promega, E2312) and proteins were allowed to express for 20h. Serially diluted inhibitor and NanoBRET Kinase Tracer (Promega) at a concentration determined previously as the KD,app (Table S5) were pipetted into white 384-well plates (Greiner 781207) using an Echo acoustic dispenser (Labcyte, San Jose, CA, USA). The corresponding protein-transfected cells were added and reseeded at a density of 2.5 × 10^5 cells/mL after trypsinization and resuspending in Opti-MEM without phenol red (Life Technologies, Carlsbad, CA, USA). The system was allowed to equilibrate for 2 h at 37 °C/5% CO2 prior to BRET measurements. To measure BRET, NanoBRET NanoGlo Substrate + Extracellular NanoLuc Inhibitor (Promega, N2540) was added as per the manufacturer’s protocol, and filtered luminescence was measured on a PHERAstar plate reader (BMG Labtech, Ortenberg, Germany) equipped with a luminescence filter pair (450 nm BP filter (donor) and 610 nm LP filter (acceptor)). Competitive displacement data were then graphed using GraphPad Prism 9 software using a normalized 3-parameter curve fit with the following equation: Y = 100/(1 + 10^(X–LogEC50)).

CDK15/Cyclin Y = target: T2, CDK15/Cyclin Y (Homo sapiens, UniProt Q96Q40); details: read-out: NanoBRET EC50 ± SEM CDK15/Cyclin Y
T2 construct: Full-length kinases were obtained as plasmids cloned in frame with a terminal NanoLuc-fusion; CS1810C178 (CCNY); host or cells: HEK293T
Experimental: as §1

CDK14/Cyclin Y = target: T3, CDK14/Cyclin Y (Homo sapiens, UniProt O94921); details: read-out: NanoBRET EC50 ± SEM CDK14/Cyclin Y
T3 construct: Full-length kinases were obtained as plasmids cloned in frame with a terminal NanoLuc-fusion; CS1810C178 (CCNY); host or cells: HEK293T
Experimental: as §1

CDK3/Cyclin E1 = target: T4, CDK3/Cyclin E1 (Homo sapiens, UniProt Q00526); details: read-out: NanoBRET EC50 ± SEM CDK3/Cyclin E1
T4 construct: Full-length kinases were obtained as plasmids cloned in frame with a terminal NanoLuc-fusion; CS1810C171 (CCNE1); host or cells: HEK293T
Experimental: as §1

CDK2/Cyclin E1 = target: T5, CDK2/Cyclin E1 (Homo sapiens, UniProt P24941); details: read-out: NanoBRET EC50 ± SEM CDK2/Cyclin E1
T5 construct: Full-length kinases were obtained as plasmids cloned in frame with a terminal NanoLuc-fusion; CS1810C171 (CCNE1); host or cells: HEK293T
Experimental: as §1

CDK11B/Cyclin K = CDK11B/Cyclin K (Homo sapiens, UniProt P21127); details: read-out: NanoBRET EC50 ± SEM CDK11B/Cyclin K
Experimental: as §1

CDK4/Cyclin D3 = target: T6, CDK4/Cyclin D3 (Homo sapiens, UniProt P11802); details: read-out: NanoBRET EC50 ± SEM CDK4/Cyclin D3
T6 construct: Full-length kinases were obtained as plasmids cloned in frame with a terminal NanoLuc-fusion; CS1810C87 (CCND3); host or cells: HEK293T
Experimental: as §1

CDK1/Cyclin E1 = target: T7, CDK1/Cyclin E1 (Homo sapiens, UniProt P06493); details: read-out: NanoBRET EC50 ± SEM CDK1/Cyclin E1
T7 construct: Full-length kinases were obtained as plasmids cloned in frame with a terminal NanoLuc-fusion; CS1810C171 (CCNE1); host or cells: HEK293T
Experimental: as §1

CDK7 = target: T8, CDK7 (Homo sapiens, UniProt P50613); details: read-out: NanoBRET EC50 ± SEM CDK7
T8 construct: Full-length kinases were obtained as plasmids cloned in frame with a terminal NanoLuc-fusion; host or cells: HEK293T
Experimental: as §1

CDK2/Cyclin D1 = target: T9, CDK2/Cyclin D1 (Homo sapiens, UniProt P24941); details: read-out: NanoBRET EC50 ± SEM CDK2/Cyclin D1
T9 construct: Full-length kinases were obtained as plasmids cloned in frame with a terminal NanoLuc-fusion; CS1810C118 (CCND1); host or cells: HEK293T
Experimental: as §1

CDK20/Cyclin H = CDK20/Cyclin H (Homo sapiens, UniProt Q8IZL9); details: read-out: NanoBRET EC50 ± SEM CDK20/Cyclin H
Experimental: as §1

CDK9/Cyclin K = target: T10, CDK9/Cyclin K (Homo sapiens, UniProt P50750); details: read-out: NanoBRET EC50 ± SEM CDK9/Cyclin K
T10 construct: Full-length kinases were obtained as plasmids cloned in frame with a terminal NanoLuc-fusion; CS1810C93 (CCNK); host or cells: HEK293T
Experimental: as §1

CDK3/Cyclin E2 = target: T11, CDK3/Cyclin E2 (Homo sapiens, UniProt Q00526); details: read-out: NanoBRET EC50 ± SEM CDK3/Cyclin E2
T11 construct: Full-length kinases were obtained as plasmids cloned in frame with a terminal NanoLuc-fusion; CCNE2: 'Promega', no number; host or cells: HEK293T
Experimental: as §1

CDK2/Cyclin A2 = target: T12, CDK2/Cyclin A2 (Homo sapiens, UniProt P24941); details: read-out: NanoBRET EC50 ± SEM CDK2/Cyclin A2
T12 construct: Full-length kinases were obtained as plasmids cloned in frame with a terminal NanoLuc-fusion; CCNA2: 'Promega', no number; host or cells: HEK293T
Experimental: as §1

CDK11B/Cyclin L2 = CDK11B/Cyclin L2 (Homo sapiens, UniProt P21127); details: read-out: NanoBRET EC50 ± SEM CDK11B/Cyclin L2
Experimental: as §1

CDK10/Cyclin L2 = CDK10/Cyclin L2 (Homo sapiens, UniProt Q15131); details: read-out: NanoBRET EC50 ± SEM CDK10/Cyclin L2
Experimental: as §1

CDK2/Cyclin A1 = target: T13, CDK2/Cyclin A1 (Homo sapiens, UniProt P24941); details: read-out: NanoBRET EC50 ± SEM CDK2/Cyclin A1
T13 construct: Full-length kinases were obtained as plasmids cloned in frame with a terminal NanoLuc-fusion; CS1810C172 (CCNA1); host or cells: HEK293T
Experimental: as §1

CDK17/Cyclin Y = CDK17/Cyclin Y (Homo sapiens, UniProt Q00537); details: read-out: NanoBRET EC50 ± SEM CDK17/Cyclin Y
Experimental: as §1

Chain of CDK11B/Cyclin K (P21127 whole entry): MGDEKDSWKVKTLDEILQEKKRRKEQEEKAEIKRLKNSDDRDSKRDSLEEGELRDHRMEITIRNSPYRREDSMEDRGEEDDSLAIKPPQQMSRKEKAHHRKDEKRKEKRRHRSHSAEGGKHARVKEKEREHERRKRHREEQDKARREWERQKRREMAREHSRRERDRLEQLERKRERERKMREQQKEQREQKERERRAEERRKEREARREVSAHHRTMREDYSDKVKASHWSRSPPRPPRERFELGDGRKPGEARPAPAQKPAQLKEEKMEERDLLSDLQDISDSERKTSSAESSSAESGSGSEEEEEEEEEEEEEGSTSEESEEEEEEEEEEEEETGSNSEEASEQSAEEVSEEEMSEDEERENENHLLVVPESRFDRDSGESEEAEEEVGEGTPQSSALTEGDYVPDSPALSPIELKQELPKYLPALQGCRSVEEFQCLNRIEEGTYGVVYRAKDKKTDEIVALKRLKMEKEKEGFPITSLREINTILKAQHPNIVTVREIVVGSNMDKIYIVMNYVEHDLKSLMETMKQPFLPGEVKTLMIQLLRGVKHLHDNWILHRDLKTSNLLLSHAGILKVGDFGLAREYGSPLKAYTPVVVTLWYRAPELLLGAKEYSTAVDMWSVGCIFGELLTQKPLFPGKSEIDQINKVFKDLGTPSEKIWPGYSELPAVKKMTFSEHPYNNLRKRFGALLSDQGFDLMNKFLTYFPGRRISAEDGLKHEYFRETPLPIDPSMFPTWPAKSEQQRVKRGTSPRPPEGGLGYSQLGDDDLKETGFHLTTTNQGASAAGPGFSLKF
Chain of CDK11B/Cyclin L2 (P21127 whole entry): as above
Chain of CDK11B/Cyclin L2 (Q96S94 whole entry partner): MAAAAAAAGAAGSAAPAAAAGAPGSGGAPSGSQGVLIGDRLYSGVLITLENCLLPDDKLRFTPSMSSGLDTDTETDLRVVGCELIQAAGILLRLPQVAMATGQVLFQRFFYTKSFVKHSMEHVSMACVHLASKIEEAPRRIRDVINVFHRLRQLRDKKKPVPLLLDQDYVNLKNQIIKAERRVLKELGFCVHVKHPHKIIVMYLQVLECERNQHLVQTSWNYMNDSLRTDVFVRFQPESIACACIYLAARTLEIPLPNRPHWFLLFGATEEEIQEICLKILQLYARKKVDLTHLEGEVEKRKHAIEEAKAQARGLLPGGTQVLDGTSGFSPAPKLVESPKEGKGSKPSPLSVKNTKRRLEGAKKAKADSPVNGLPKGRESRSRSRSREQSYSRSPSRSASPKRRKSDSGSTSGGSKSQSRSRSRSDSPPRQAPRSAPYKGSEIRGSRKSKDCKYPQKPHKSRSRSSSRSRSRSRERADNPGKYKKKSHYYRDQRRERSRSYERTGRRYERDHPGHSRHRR
T4 sequence (Q00526 whole entry, the tested form may be a part): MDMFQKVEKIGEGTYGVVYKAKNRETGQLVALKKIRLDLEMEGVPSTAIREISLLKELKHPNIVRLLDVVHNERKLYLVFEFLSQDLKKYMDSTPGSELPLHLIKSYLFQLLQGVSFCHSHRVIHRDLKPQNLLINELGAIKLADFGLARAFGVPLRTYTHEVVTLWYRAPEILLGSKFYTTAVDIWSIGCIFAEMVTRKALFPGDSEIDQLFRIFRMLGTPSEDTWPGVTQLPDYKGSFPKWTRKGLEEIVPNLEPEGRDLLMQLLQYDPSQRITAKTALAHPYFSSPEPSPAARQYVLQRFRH
T4 sequence (P24864 whole entry partner, the tested form may be a part): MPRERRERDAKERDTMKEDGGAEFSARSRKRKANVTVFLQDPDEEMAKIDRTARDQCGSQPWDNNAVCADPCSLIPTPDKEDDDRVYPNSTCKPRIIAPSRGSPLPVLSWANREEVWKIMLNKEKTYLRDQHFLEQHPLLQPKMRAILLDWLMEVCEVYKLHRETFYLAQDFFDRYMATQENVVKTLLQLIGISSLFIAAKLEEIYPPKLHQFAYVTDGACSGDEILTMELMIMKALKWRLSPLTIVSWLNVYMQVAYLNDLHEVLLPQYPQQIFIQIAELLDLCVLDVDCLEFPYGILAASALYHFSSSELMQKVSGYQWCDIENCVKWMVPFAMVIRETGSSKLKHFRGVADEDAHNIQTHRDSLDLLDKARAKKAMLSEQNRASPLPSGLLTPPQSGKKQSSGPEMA
T11 sequence (Q00526 whole entry, the tested form may be a part): as the sequence (Q00526 whole entry, the tested form may be a part) above
T11 sequence (O96020 whole entry partner, the tested form may be a part): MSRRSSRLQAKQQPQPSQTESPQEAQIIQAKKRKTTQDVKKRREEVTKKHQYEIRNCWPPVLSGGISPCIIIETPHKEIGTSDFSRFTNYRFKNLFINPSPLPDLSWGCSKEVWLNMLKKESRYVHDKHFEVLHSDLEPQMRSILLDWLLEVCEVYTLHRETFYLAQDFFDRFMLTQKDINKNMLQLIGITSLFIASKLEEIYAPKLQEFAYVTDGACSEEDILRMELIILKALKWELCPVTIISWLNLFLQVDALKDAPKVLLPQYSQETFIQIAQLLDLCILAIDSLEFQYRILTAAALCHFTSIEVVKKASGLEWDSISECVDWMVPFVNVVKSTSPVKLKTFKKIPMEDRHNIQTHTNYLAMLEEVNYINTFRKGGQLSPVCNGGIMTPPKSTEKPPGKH
T6 sequence (P11802 whole entry, the tested form may be a part): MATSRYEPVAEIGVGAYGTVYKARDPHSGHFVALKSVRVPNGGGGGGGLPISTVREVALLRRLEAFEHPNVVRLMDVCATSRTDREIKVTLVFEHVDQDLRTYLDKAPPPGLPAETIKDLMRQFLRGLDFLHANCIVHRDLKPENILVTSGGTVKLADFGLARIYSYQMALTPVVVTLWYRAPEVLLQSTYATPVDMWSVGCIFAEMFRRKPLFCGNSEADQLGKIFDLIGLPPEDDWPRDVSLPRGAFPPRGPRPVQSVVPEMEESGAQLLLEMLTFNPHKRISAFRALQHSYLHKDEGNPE
T6 sequence (P30281 whole entry partner, the tested form may be a part): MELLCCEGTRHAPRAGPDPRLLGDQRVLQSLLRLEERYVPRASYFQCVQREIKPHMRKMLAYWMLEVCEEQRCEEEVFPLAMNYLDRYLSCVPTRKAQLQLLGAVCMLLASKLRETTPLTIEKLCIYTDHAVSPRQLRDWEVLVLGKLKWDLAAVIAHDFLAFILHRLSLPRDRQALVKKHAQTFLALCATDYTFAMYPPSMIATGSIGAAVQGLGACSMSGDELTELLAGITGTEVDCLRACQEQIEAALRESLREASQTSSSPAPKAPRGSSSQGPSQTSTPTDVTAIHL
T7 sequence (P06493 whole entry, the tested form may be a part): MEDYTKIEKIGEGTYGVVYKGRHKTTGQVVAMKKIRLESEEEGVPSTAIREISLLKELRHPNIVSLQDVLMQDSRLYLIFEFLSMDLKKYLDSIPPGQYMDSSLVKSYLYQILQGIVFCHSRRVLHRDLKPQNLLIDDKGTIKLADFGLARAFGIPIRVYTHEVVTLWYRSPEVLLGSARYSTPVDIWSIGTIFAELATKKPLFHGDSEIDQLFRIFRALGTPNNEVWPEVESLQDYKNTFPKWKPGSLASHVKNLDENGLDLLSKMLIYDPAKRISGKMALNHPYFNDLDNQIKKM
Chain of CDK17/Cyclin Y (Q00537 whole entry): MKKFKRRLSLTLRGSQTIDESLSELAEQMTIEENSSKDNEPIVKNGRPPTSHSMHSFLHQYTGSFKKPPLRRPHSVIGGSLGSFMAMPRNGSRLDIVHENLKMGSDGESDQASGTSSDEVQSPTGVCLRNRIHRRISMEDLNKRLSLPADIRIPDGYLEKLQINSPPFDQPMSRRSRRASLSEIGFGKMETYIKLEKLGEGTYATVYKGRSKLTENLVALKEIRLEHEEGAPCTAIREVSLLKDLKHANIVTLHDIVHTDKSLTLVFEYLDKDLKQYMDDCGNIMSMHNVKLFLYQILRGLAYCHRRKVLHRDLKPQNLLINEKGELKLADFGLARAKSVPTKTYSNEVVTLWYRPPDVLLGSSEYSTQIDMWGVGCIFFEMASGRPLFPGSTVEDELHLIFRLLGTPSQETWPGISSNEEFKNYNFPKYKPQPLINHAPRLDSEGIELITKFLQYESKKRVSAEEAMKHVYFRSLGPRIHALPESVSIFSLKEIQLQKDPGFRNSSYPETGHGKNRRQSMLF
Chain of CDK17/Cyclin Y (Q8ND76 2-341 partner limits assumed): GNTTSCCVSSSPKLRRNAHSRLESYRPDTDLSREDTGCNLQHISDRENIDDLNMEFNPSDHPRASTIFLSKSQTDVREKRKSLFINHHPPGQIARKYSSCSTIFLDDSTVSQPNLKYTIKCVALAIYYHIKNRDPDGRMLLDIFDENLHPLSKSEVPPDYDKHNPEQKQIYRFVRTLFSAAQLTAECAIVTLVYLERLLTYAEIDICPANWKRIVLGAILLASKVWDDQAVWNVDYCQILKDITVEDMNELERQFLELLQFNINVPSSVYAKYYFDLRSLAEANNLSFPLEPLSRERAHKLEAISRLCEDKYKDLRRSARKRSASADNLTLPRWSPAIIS
T10 sequence (P50750 whole entry, the tested form may be a part): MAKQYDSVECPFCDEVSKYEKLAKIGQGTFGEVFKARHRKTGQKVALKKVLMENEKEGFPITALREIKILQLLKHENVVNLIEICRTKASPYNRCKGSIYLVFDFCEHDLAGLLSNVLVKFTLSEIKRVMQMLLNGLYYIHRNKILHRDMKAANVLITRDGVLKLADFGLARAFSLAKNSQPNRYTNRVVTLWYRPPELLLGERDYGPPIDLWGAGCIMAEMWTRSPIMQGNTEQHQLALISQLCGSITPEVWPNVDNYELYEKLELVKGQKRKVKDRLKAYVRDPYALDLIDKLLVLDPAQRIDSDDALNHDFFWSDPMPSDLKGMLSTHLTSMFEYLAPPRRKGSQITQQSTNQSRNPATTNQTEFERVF

Structure (SMILES)	EC50 (CDK6/Cyclin D3) [nM]	EC50 (CDK15/Cyclin Y) [nM]	EC50 (CDK14/Cyclin Y) [nM]	EC50 (CDK3/Cyclin E1) [nM]	EC50 (CDK2/Cyclin E1) [nM]	EC50 (CDK11B/Cyclin K) [nM]	EC50 (CDK4/Cyclin D3) [nM]	EC50 (CDK1/Cyclin E1) [nM]	EC50 (CDK7) [nM]	EC50 (CDK2/Cyclin D1) [nM]	EC50 (CDK20/Cyclin H) [nM]	EC50 (CDK9/Cyclin K) [nM]	EC50 (CDK3/Cyclin E2) [nM]	EC50 (CDK2/Cyclin A2) [nM]	EC50 (CDK11B/Cyclin L2) [nM]	EC50 (CDK10/Cyclin L2) [nM]	EC50 (CDK2/Cyclin A1) [nM]	EC50 (CDK17/Cyclin Y) [nM]
COC(=O)c1cc(Nc2ccnc(NCc3ccc(NC(=O)OC(C)(C)C)cc3)n2)[nH]n1 [21i, methyl 5-((2-((4-((tert-butoxycarbonyl)amino)benzyl)amino)pyrimidin-4-yl)amino)-1H-pyrazole-3-carboxylate]	6550 ± 3480	2090 ± 496	1370 ± 374	12400 ± 4610	20900 ± 5690	22900 ± 3740	6780 ± 1460	6420 ± 3460	10400 ± 4770	33500 ± 1520	8420 ± 629	7000 ± 2120	38800 ± 4640	11700 ± 2330	16700 ± 7890	7930 ± 2930	36700 ± 3320	673
CC(C)(C)OC(=O)Nc1ccc(CNc2nccc(Nc3cc(C(=O)OC(C)(C)C)[nH]n3)n2)cc1 [43d, tert-butyl 3-((2-((4-((tert-butoxycarbonyl)amino)benzyl)amino)pyrimidin-4-yl)amino)-1H-pyrazole-5-carboxylate]	2910 ± 1570	302	72.1	2750 ± 959	1860 ± 582	7960 ± 3290	908 ± 113	582	1460 ± 552	3070 ± 1860	1710 ± 222	993	16100 ± 7620	1520 ± 449	3580 ± 1730	651	1670 ± 420	21.2
CC(C)OC(=O)c1cc(Nc2ccnc(NCc3ccc(NC(=O)OC(C)(C)C)cc3)n2)n[nH]1 [42d, isopropyl 3-((2-((4-((tert-butoxycarbonyl)amino)benzyl)amino)pyrimidin-4-yl)amino)-1H-pyrazole-5-carboxylate]	2080 ± 935	167 ± 14.9	88.2 ± 48.8	1270 ± 522	2600 ± 914	3860 ± 1050	508 ± 86.6	200 ± 42.8	1140 ± 658	4860 ± 2390	745 ± 350	575 ± 157	26900 ± 13400	2840 ± 1350	2990 ± 1330	333.6 ± 0.2	32500 ± 13900	33.7 ± 2.5
N#CCc1ccc(Nc2nccc(Nc3cc(C4CC4)[nH]n3)n2)cc1 [compound 1, reference compound]	45.3 ± 35.6	93.4 ± 41.7	33.7 ± 8.2	11.8 ± 4.5	26.7 ± 6.3	926 ± 649	32.1 ± 3.1	5.2 ± 2.5	103 ± 43.2	38.6 ± 17.3	2660 ± 568	17.4 ± 5.4	38.4 ± 30.4	28.1 ± 7.5	669 ± 406	325 ± 36.4	60 ± 41.1	9.9 ± 1.2
